Key:
[1] = Elimination half-life of the active ingredient in man; conditions: human, in vivo
Description: The active ingredient of the invention may be administered periodically, e.g. weekly or biweekly, or daily or several times a day, depending on the patient's needs. […] Therefore, a periodical treatment, e.g. weekly, may be satisfactory.

[2] = Plasma concentrations following 24 h levosimendan infusion in heart failure patients; assay type: in vivo, human; conditions: levosimendan 0.2 μg/kg/min for 24 hours; for half-life: human, plasma, intravenous, 0.2 ug/kg, FIG. 1, read-out: elimination half-life (converted)
Procedure: Plasma concentrations of levosimendan and its active metabolite (R)-N-[4-(1,4,5,6-tetrahydro-4-methyl-6-oxo-3-pyridazinyl)phenyl]acetamide (OR-1896) following administration of 0.2 μg/kg/min of levosimendan for 24 hours in heart failure patients are shown in FIG. 1.

plasma proteins = experiment: Plasma protein binding; assay type: in vitro ADME; conditions: read-out: bound to plasma proteins (converted)
Description: It is known that the favourable hemodynamic effects following intravenous administration of levosimendan are seen considerably longer than levosimendan concentrations are observed in plasma. […] However, it has also been discovered that only about 30% of the active metabolite is bound to plasma proteins whereas as much as 98% of levosimendan is bound to plasma proteins. Therefore, the active free concentration of the active metabolite in plasma is proportionally much higher than that of levosimendan.

[3] = test system: congestive heart failure patients; experiment: All-cause mortality (Kaplan Meier) in congestive heart failure patients, dobutamine controlled studies; assay type: in vivo, human; conditions: intravenous levosimendan 0.1-0.2 μg/kg/min for 24 hours vs dobutamine; FIG. 2

`CC(=O)Nc1ccc(C2=NNC(=O)CC2C)cc1` (centres unmarked) [(I), N-[4-(1,4,5,6-tetrahydro-4-methyl-6-oxo-3-pyridazinyl)phenyl]acetamide] gave a half-life [1] of about 72 h.
In the case of `CC(=O)Nc1ccc(C2=NNC(=O)C[C@H]2C)cc1` [OR-1896, (R)-N-[4-(1,4,5,6-tetrahydro-4-methyl-6-oxo-3-pyridazinyl)phenyl]acetamide], the half-life [2] is reported as about 77 h, the “time plasma concentrations are detectable after the infusion” value ([2]; FIG. 1) is reported as 12 days and the fraction unbound (plasma proteins) is reported as about 0.7.
In the case of `C[C@@H]1CC(=O)NN=C1c1ccc(NN=C(C#N)C#N)cc1` [levosimendan], the half-life [2] is reported as about 1.3 h, the “plasma concentrations after discontinuation of infusion” value ([2]; one day after discontinuation) is reported as “not detectable one day after the discontinuation of infusion” and the “all-cause mortality (0-14 days), Kaplan Meier survival curves” value [3] is reported as “survival curves are clearly diverging throughout the observation period”. For the same molecule, the fraction unbound (plasma proteins) was 0.02.
